These results are taken from a melting point compilation (Tetko et al.; mined from patent text by program, amines drawn as free bases though some values may be those of a salt).

For `CC(=O)OCC1OC(n2cc(C)c(=O)[nH]c2=O)CC1F` (configuration not stated), the melting point was in the range of 97 to 98 °C.
For the compound `CC(C)OCc1cc(O)cc2cc(-c3ccc(O)cc3)oc12`, the melting point is 195 to 197 °C.
On to `CC(=O)Nc1c(Cl)cnc(OCCO)c1Cl`, for which the melting point was in the range of 131 to 132 °C.
With `N#CC1CN1C(=O)NC(=O)CCl` (configuration not stated) the figure was 152 to 155 °C.
`CN(C)C=NS(=O)(=O)c1cc(CCNC(=O)C(F)(F)F)ccc1-c1ccco1` registered a melting point of 150 °C.
Compound `CC(C)(NC(=O)c1cc2c(n(CC3CCCCC3)c1=O)CCCCCC2)C(=O)N(N)S(C)(=O)=O` gave a melting point of 177 to 178 °C.
With `Nc1ccccc1NC(=O)c1cc2cccc(OCCO)c2o1` the figure was 182 to 183 °C; with `CCCCCS(=O)(=O)NC(=O)/C=C/c1ccc(OCCOC)cc1Oc1ncc(C(F)(F)F)cc1Cl`, 123 to 125 °C; with `Cc1nc2c(s1)-c1nc(Nc3ccc(N(C)C)cc3)ncc1CC2`, 176 to 177 °C.
For `CCCC(CO)(CO)CO` the value was 100 to 101 °C; for `Cc1ccc2c(c1)CCOC2CCN1CCN(c2ccc(S(N)(=O)=O)cc2)CC1` (configuration not stated), 221 to 222 °C; for `O=C(O)C(=O)Nc1ccc(Oc2ccc(NC(=O)C(=O)O)cc2)cc1`, above 320 °C.
For `COc1cc(C(=O)Nc2c(C)cc3cn[nH]c3c2C(=O)NC(C)C)n(-c2ncccc2Cl)n1` the value was 148 to 151 °C.
Consider `COCCOc1cc2ncnc(Nc3cc(OC)c(Br)cc3OC)c2cc1OC`, for which the melting point lay in the range of 217 to 221 °C.
For `COc1cc2c(Nc3ccc(Cl)cc3F)ncnc2cc1OCCN(C)C(=O)OC(C)(C)C` the value was 194 to 196 °C; for `CC1(C)Oc2ccc(OC(F)(F)F)cc2[C@@H](NC(=O)c2ccc(C(F)(F)F)cc2[N+](=O)[O-])[C@@H]1O`, 60 to 65 °C.
As for `CC(=O)NCCOc1cc(-c2ccccc2)on1`, the melting point was 144 to 145 °C.
With `Cn1nc(-c2ccc(Cl)cc2)nc1-c1cccnc1` the figure was 157 to 158 °C; with `O=C1NC(=S)CCC1N1Cc2c(cccc2[N+](=O)[O-])C1=S` (configuration not stated), 248 to 250 °C.
Consider `O=S1(=O)c2cccc3cccc(c23)N1CCCN1CC=C(c2ccc(O)cc2)CC1`, for which the melting point came to 198 °C.
The compound `Cc1nc(N2CCN(CC(C)C)C2=O)sc1C(=O)NCc1cnn(C)c1` came in with a melting point of 155 to 158 °C.
With `Cc1ccc(N=CN(C)SN(C)c2ccccc2)c(C)c1` the figure was 72 to 73.5 °C.
In turn, `Cc1sc(N2C(=O)OCC2(C)C)nc1-c1ccc(C#N)cc1` gave a melting point of 192 to 193 °C.
For `Cn1c(=O)c(-c2c(Cl)cccc2Cl)cc2cnc(Nc3ccc(Cl)cc3)nc21` the value was 255 to 256 °C.
In turn, `CC(=O)c1cccc2c1[C@@H](NC(=O)c1ccc(F)cc1)[C@H](O)C(C)(C)O2` (relative stereo) displayed a melting point of 175 °C.
With `O=C1N=c2ccc(C3(c4nc5ccc(-c6ccccc6)cc5[nH]4)N=c4ccccc4=N3)cc2=NC1=O` the figure was above 280 °C; with `CC(=O)Nc1nc(C)c(CCC(C)c2ccc(Cl)cc2)c(NC(C)=O)n1` (configuration not stated), 136 to 138 °C.
For `CCn1cc(C(=O)O)c(=O)c2cc(F)c(N3CCOC(CNC=O)C3)c(F)c21` (configuration not stated), the melting point was in the range of 234 to 236 °C.
For the compound `CN(Cc1ccccc1S(=O)c1nc2ccccc2[nH]1)c1ccccc1` (configuration not stated), the melting point is 164 to 166 °C.
Regarding `CC(C)OC(=O)C1CCCN1S(=O)(=O)c1ccc(N2CCC(NCC(O)c3ccc(O)c(NS(C)(=O)=O)c3)CC2)cc1` (configuration not stated), the melting point was 52 to 58 °C.
On to `Cc1ccc(S(=O)(=O)N(Cc2ccc(C#N)cc2F)C2CCC2)cc1`, for which the melting point fell in the range of 146 to 147 °C.
`Fc1ccc(Nc2nc(Cl)nc(Cl)n2)cc1C(F)(F)F` came in with a melting point of 114 to 117 °C.
With `C=CCCN(c1ccc(OC)cc1)S(=O)(=O)c1c(F)c(F)c(F)c(F)c1F` the figure was 64 to 66 °C; with `CN1C(=O)C(N)=C(C(N)=S)C1=O`, 282 °C; with `CC(C)(C)c1cc(OCc2ccccc2C#N)cc(C(C)(C)C)c1O`, 117 to 119 °C.
Regarding `C=Cc1cnc(NC(=O)C(C)C)nc1`, the melting point was 110 to 112 °C.
`COc1cccc2ccc(CC#N)cc12` had a melting point of 47 to 48 °C.
For `Cc1csc(C(=O)C(F)(F)F)n1` the value was 77 to 81 °C; for `O=C(CCNC(=O)C(Cc1ccccc1)CP(=O)(O)O)OCc1ccccc1` (configuration not stated), 122 to 123 °C; for `COc1ccc(C(O)(c2ccccc2)c2ccc(OC)cc2)cc1`, 122 to 124 °C.
The compound `CCOCC(O)(COCC)C(Cc1cc(OC)cc(OC)c1)NC(=O)OC(C)(C)C` (configuration not stated) had a melting point of 73.5 to 75 °C.
Take `Cc1nn(C)c2c(=O)n(-c3ccc(Cl)c(Cl)c3)cnc12`: the melting point was in the range of 250 to 251 °C.
For `COc1ccc(NS(C)(=O)=O)cc1C(=O)NC1CCN(C2CCCCC2)C1` (configuration not stated) the value was 170 to 172 °C; for `CCN1c2ncc(CN(C)c3ccccc3)cc2C(=O)N(C)c2ccc(Cl)nc21`, 55 to 57 °C; for `CN1CC(C(=O)CN2CCOCC2)CC2c3cccc4[nH]cc(c34)CC21` (configuration not stated), 178 to 180 °C.
With `CSCC(=O)[C@H](Cc1ccccc1)NC(=O)[C@H](CC(C)C)NS(=O)(=O)c1ccccc1` the figure was 133 to 136 °C; with `CCCCOCc1cnc2nc(N)[nH]c(=O)c2n1`, above 300 °C.
For `Cc1ccc(Cn2c(=O)c3c(Cl)cc(Cl)cc3n(Cc3ccccc3)c2=O)cc1C` the value was 126 to 132 °C; for `CC1CC(=O)NN=C1c1ccc(N2CCN(C(=O)NCCCc3c[nH]cn3)CC2)c([N+](=O)[O-])c1` (configuration not stated), 182 °C; for `CCCCNS(=O)(=O)CC(O)C(O)C(CC1CCCCC1)NC(=O)C(Cc1c[nH]cn1)NS(=O)(=O)CCc1ccccc1` (configuration not stated), 208 to 210 °C.
In turn, `COC(=O)CCCCCCCCCCCCC1=C(C)C(=O)C(OC)=C(OC)C1=O` displayed a melting point of 54 °C.
On to `Cc1csc(-c2cc(=O)n(C)c3ccc(C(O)(c4ccc(Cl)cc4)c4cncn4C)cc23)n1` (configuration not stated), for which the melting point came out at 200 °C.
For `Cc1cccc(Nc2ncccc2[N+](=O)[O-])n1` the value was 153 to 154 °C; for `CCN(c1ccc(Cl)cc1C(N)=S)S(=O)(=O)c1ccc(C)cc1`, 180 to 182 °C; for `CN(C)c1cc2c(cc1-c1ccc3cc(C=C4SC(=S)N(CC(=O)O)C4=O)ccc3c1)C(C)(C)CCC2(C)C`, 194 to 196 °C.
With `O=C(O)CCCOc1ccc(C23CC4CC(CC(C4)C2)C3)cc1` the figure was 170 to 172 °C.
For `CC1(C)CCCNc2ccc([N+](=O)[O-])cc21` the value was 99 °C; for `CC(C)(C)N(C(=O)C(O)(C(=O)O)c1ccccc1)C(C)(C)C` (configuration not stated), 99 to 100 °C.
Take `CC(=O)Oc1ccc2c(c1)CCCO2`: the melting point fell in the range of 76 to 77 °C.
Compound `CCOC(=O)C(=O)Nc1ccc(OC)c(NC(=O)C(=O)OCC)c1` returned a melting point of 140 to 145 °C.
For `CC(C)OC(=O)c1cc(-n2c(=O)c(F)c(C(F)(F)F)n(C)c2=O)c(F)cc1Cl` the value was 66 to 68 °C; for `O=C(O)/C=C/c1ccc(-c2nc3c([nH]2)c(=O)n(CC2CCCCC2)c(=O)n3CC2CCCCC2)s1`, above 300 °C.
For the compound `O=C(CCCN1CCN(c2ccc(F)cc2)CC1)NC1c2ccccc2C=Cc2ccccc21`, the melting point lay within 233 to 235 °C.
With `O=C(CCc1ccc2ccccc2c1)c1cnc2sc3c(n12)CCCCC3`, the melting point lay in the range of 76 to 78 °C.
With `CNC(=O)N=c1ccc(C)cn1-c1cccc(C(F)(F)F)c1` the figure was 114 °C.
With `CC(C)(C)c1ccc(C(=O)C(Cl)(Cl)Cl)cc1` the figure was 59 to 62 °C; with `CCCCN(CCCC)c1nc(Nc2cccc3c2C(=O)c2ccccc2C3=O)nc(N(CCCC)CCCC)n1`, 128 to 133 °C.
For `Cc1cc(Cl)ccc1OCC(=O)N1Cc2ccc(C(=O)NCc3cccnc3)n2Cc2ccccc21` the value was 168 °C; for `O=C(O)C1CC(=O)N(Cc2ccccc2)C1c1ccccc1` (configuration not stated), 169 to 171 °C.
`Cc1cc(O)c(S(=O)(=O)Cc2ccc(Cl)c(Cl)c2)c(=O)o1` displayed a melting point of 144 to 145 °C.
With `CNC(=O)c1ccccc1Nc1nc(Nc2cc3c(cc2OC)CC(=O)NCC3)ncc1Cl` the figure was above 250 °C.
With `CSc1nc(C)c(CCCl)c(=O)n1C` the figure was 135 to 137 °C.
With `O=C(NS(=O)(=O)c1ccccc1)c1ccc2nc(C3CC3)n(Cc3ccc(-c4ccccc4)cc3)c2c1` the figure was 221 to 225 °C; with `Cc1noc(C)c1-c1cncc(OC2SCC(O)C(O)C2O)c1` (configuration not stated), 222 to 223 °C; with `Cc1c(C)c2c(c(C)c1NCc1ccc(F)cc1)C(c1ccc(F)cc1)C(C)(C)O2` (configuration not stated), 118 to 120 °C.
`CCCCN/C(=C1/Sc2ccccc2C1=O)c1ccccc1` yielded a melting point of 106 to 107 °C.
As for `Cc1ccccc1Nc1c(C(=O)C(C)C)cnc2c(OCCO)cccc12`, the melting point lay in the range of 138 to 140 °C.
For `Oc1ccc2c(c1)CC(O)C2` (configuration not stated), the melting point was in the range of 112 to 115 °C.
For `CN1CCN(c2cc(Cl)cc3c2c(=O)n(Cc2ccc(Cl)cc2)c(=O)n3Cc2ccccc2)CC1` the value was 92 to 97 °C; for `Fc1ccc(Nc2ncnc3cnc(N4CCC(N5CCNCC5)CC4)nc23)cc1Cl`, 178 to 180 °C; for `Cc1sc2cc(CCO)ccc2c1C(=O)O`, 166 to 169 °C.
In turn, `COc1ccc2cc([C@H](C)C(=O)OCC(=O)N(C)CC(=O)OCCO)ccc2c1` registered a melting point of 113 to 114 °C.
For `COc1ccc(S(=O)(=O)C2(CCCC#Cc3ccc(Cl)cc3)SC(=O)N(C)C2=O)cc1` (configuration not stated) the value was 113 to 115 °C; for `N=C(NO)c1ccc2nc(N[C@@H]3CCc4ccccc43)ccc2c1`, 236 °C; for `O=c1[nH]c2cc(Cl)ccc2cc1-c1ccc(O)cc1`, 262 °C.
For `C=C(CCCl)C(=O)c1ccc(OC)c(Cl)c1Cl` the value was 58 to 60 °C; for `C=COC(=O)C1=Cc2cc(Cl)cc(C=C)c2OC1C(F)(F)F` (configuration not stated), 75.9 to 77.2 °C.
